Measured values reported in ChEMBL document CHEMBL1240454, “1,3-Dioxolane-based ligands incorporating a lactam or imide moiety: structure-affinity/activity relationship at alpha1-adrenoceptor subtypes and at 5-HT1A receptors” (Eur J Med Chem, 2010).

Key:
[1] = target: T1, 5-hydroxytryptamine receptor 1A (Homo sapiens) (UniProt P08908); experiment: Agonist activity at human cloned 5HT1A receptor expressed in human HeLa cells assessed as stimulation of [35S]GTPgammaS binding after 20 mins by liquid scintillation counting; format: functional, cell-based
T1 sequence (whole entry): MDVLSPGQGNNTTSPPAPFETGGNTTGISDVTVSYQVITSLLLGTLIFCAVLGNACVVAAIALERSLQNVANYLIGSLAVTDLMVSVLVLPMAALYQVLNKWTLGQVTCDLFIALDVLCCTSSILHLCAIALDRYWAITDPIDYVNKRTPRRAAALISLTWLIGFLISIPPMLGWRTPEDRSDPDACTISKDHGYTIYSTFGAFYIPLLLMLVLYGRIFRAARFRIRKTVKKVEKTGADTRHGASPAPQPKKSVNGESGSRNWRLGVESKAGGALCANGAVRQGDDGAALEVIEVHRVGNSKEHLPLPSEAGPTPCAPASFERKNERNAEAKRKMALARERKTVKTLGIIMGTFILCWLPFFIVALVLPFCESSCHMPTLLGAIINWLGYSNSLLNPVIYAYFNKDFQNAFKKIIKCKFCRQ

[2] = target: T1, 5-hydroxytryptamine receptor 1A (Homo sapiens); experiment: Agonist activity at human cloned 5HT1A receptor expressed in human HeLa cells assessed as stimulation of [35S]GTPgammaS binding after 20 mins by liquid scintillation counting relative to maximal 5HT response; format: functional, cell-based
[3] = target: T2, Alpha-1B adrenergic receptor (Rattus norvegicus) (UniProt P15823); experiment: Antagonist activity at adrenergic Alpha-1B receptor in Wistar rat spleen assessed as inhibition of […]-induced tissue contraction treated 30 mins before […] challenge; format: functional, tissue-based
T2 sequence (whole entry): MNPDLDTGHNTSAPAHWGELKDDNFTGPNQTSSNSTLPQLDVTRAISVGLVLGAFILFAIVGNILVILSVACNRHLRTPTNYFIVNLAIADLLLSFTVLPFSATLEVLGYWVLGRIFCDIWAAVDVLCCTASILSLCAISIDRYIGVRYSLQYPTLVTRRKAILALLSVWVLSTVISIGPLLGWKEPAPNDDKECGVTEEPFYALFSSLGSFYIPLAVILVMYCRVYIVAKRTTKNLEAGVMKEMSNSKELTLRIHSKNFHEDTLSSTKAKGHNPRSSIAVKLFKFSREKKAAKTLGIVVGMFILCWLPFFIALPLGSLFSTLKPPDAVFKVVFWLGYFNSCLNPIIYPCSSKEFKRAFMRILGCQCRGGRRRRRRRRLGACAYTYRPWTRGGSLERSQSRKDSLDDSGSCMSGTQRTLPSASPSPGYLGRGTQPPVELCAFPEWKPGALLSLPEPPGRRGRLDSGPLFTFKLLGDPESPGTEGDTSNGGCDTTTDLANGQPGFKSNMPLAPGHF

Row | SMILES | pD2 [1] | Emax [2] | pKb [3]
1 | CCCN(CCC)C1CCc2cccc(O)c2C1 (stereo not given) | 9.27 | 26% | –
2 | COc1ccccc1N1CCN(CCN2C(=O)CC3(CCCC3)CC2=O)CC1 | 7.83 | 100% | 7.48
